In one assay the test system is Septoria tritici (St). The assay is described as follows: In vitro pathogen growth inhibition assay, St. Conditions: Zymoseptoria tritici, 48 h, ≥90% growth inhibition; 48 hours; vs 2% DMSO control; read-out: Compound Concentration (ppm) sufficient for ≥90% inhibition of St. The class given is cell-based. The essentials: (§1)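 Value reported is the compound concentration reaching ≥90% growth inhibition, from OD readings at 24 and 48 h after blank subtraction, confirmed visually. Inoculum was spores diluted in 17% V8 medium, except Rs, using 1.5 mm mycelial plugs in ¼ PDB; actual compound concentration corrected via OD600.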

Another assay concerns Phakopsora pachyrhizi. Nature of the assay: Foliar protection test for Asian soybean rust control. The class given is in vivo. Conditions: foliar application to soybean (Glycine max AG4832), percent disease area evaluated 14 days later.
The test system of the next assay is Puccinia triticina. The assay is described as follows: Foliar protection test for wheat leaf rust control. Format: in vivo. Conditions: foliar application to wheat (Triticum aestivum cv. Winterhawk), evaluated 10 days later.
In assay [1] the test system is Collectotrichum graminicola (Cg). The assay is described as follows: In vitro pathogen growth inhibition assay, Cg. Format: cell-based. Conditions: 48 h, ≥90% growth inhibition; 48 hours; vs 2% DMSO control; read-out: Compound Concentration (ppm) sufficient for ≥90% inhibition of Cg. The essentials:
as §1

The subject of assay [2] is Phytophthora capsici (Pc). The assay is described as follows: In vitro pathogen growth inhibition assay, Pc. Format: cell-based. Conditions: 48 h, ≥90% growth inhibition, 48 hours, vs 2% DMSO control, read-out: Compound Concentration (ppm) sufficient for ≥90% inhibition of Pc. The essentials: (§2)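 Spores in 17% V8 liquid medium, or 1.5 mm Rs mycelial plugs in ¼ PDB, incubated with compound; final concentration checked by OD600 for precipitation. OD readings at 24 and 48 h, blank-subtracted, plus visual ratings; value is concentration giving ≥90% growth inhibition.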

The next assay deals with Botrtyis cinerea (Bc). The assay is described as follows: In vitro pathogen growth inhibition assay, Bc. The class given is cell-based. Conditions: 48 h, ≥90% growth inhibition; 48 hours; vs 2% DMSO control; read-out: Compound Concentration (ppm) sufficient for ≥90% inhibition of Bc. The method in brief:
as §1

For assay [3], the system named is Blumeria graminis f. sp. hordei. The assay is described as follows: Foliar protection test for barley powdery mildew control. The class given is in vivo. Conditions: foliar spray on Hordeum vulgare cv. Perry, inoculated 24 hours after treatment, evaluated 7 days later. The method in brief:
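Protective foliar test: compound atomized onto both leaf surfaces of 6-day-old Hordeum vulgare cv. Perry, followed after 24 h by spore-cloud inoculation from colonized untreated plants. Disease rated on leaves 7 days on, plants held at 20 to 22° C and 70% RH.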

In the next assay the test system is Rhizoctonia solani (Rs). Nature of the assay: In vitro pathogen growth inhibition assay, Rs (mycelial plugs). The class given is cell-based. Conditions: Rhizoctonia solani, 48 h, ≥90% growth inhibition; mycelial plugs; 48 hours; vs 2% DMSO control; read-out: Compound Concentration (ppm) sufficient for ≥90% inhibition of Rs. The method in brief: as §2
In the next assay the test system is Fusarium graminearum. Format: in vivo. Conditions: spray on flowering Triticum aestivum cv. Samson, inoculated 24 hours after treatment, evaluated 14 days later.
A further assay concerns Diplodia maydis (Dm). The assay is described as follows: In vitro pathogen growth inhibition assay, Dm. The class given is cell-based. Conditions: Stenocarpella maydis, 48 h, ≥90% growth inhibition; 48 hours; vs 2% DMSO control; read-out: Compound Concentration (ppm) sufficient for ≥90% inhibition of Dm. The essentials: as §2
Assay [4] has as its system Mycosphaerella graminicola (synthetic Septoria tritici). Nature of the assay: Foliar protection test for wheat septoria leaf blotch control. The class given is in vivo. Conditions: foliar spray on Triticum aestivum cv. WinterHawk, inoculated 1 hour after treatment, evaluated 16 days later.
The subject of assay [5] is Fusarium moniliforme (Fm). The assay is described as follows: In vitro pathogen growth inhibition assay, Fm. Format: cell-based. Conditions: Fusarium verticillioides; ≥90% growth inhibition; 48 hours; vs 2% DMSO control; read-out: Compound Concentration (ppm) sufficient for ≥90% inhibition of Fm. The essentials:
as §1

The subject of the next assay is Sphaerotheca fuliginea. Nature of the assay: Foliar protection for cucumber powdery mildew control. The class given is in vivo. Conditions: foliar spray on Cucumis sativus cv. Straight Eight, inoculated 24 hours after treatment, evaluated 7 days later. The method in brief:
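Protective foliar spray on 10-day-old Straight Eight cucumbers, with S. fuliginea spores dusted from infected stock plants 24 h after treatment. Disease developed at 23–27 °C, 60% RH and a 16 h photoperiod. Leaves were rated for mildew growth after 7 days; test rates 10 ppm or below.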

Assay [6] deals with Fusarium virguliforme (Fv). Nature of the assay: In vitro pathogen growth inhibition assay, Fv. Conditions: ≥90% growth inhibition, 48 hours, vs 2% DMSO control, read-out: Compound Concentration (ppm) sufficient for ≥90% inhibition of Fv. Format: cell-based. The method in brief:
as §2

The text below walks through data of patent US10941157B2, “Pesticidal compositions and uses thereof” (Gilead Apollo, LLC, priority 2015, dated 2021).

Values after ≈ are worked out from the molar mass of the structure shown.

As to `CCNC(=O)C(C)(C)n1c(=O)c2c(C)c(-n3nccn3)sc2n(C[C@H](O)c2cc(F)ccc2OC)c1=O` [Compound I-292, (R)—N-ethyl-2-(1-(2-(5-fluoro-2-methoxyphenyl)-2-hydroxyethyl)-5-methyl-2,4-dioxo-6-(2H-1,2,3-triazol-2-yl)-1,4-dihydrothieno[2,3-d]pyrimidin-3 (2H)-yl)-2-methylpropanamide], the IC90 in the assay with Septoria tritici (St) is greater than 50 mg/L; in [1], 2 mg/L (≈ 3.77 µM); in assay [2], greater than 50 mg/L; with Botrtyis cinerea (Bc), 2 mg/L (≈ 3.77 µM); with Rhizoctonia solani (Rs) it was 0.4 mg/L (≈ 0.754 µM); with Diplodia maydis (Dm), 2 mg/L (≈ 3.77 µM). Also, the IC90 worked out at 0.08 mg/L (≈ 0.151 µM) in [5] and 0.4 mg/L (≈ 0.754 µM) in [6]. For the same compound, the “Asian Soybean Rust Control at a compound concentration of 25 ppm or lower” value (“Asian Soybean Rust Control … of 25 ppm or lower” below) in the assay on Phakopsora pachyrhizi is “B (from 50 to 69% control of Asian soybean rust)”. Moreover, the “Wheat Leaf Rust Control at a compound concentration of 10 ppm or lower” value (“Wheat Leaf Rust Control … of 10 ppm or lower” for short) in the assay on Puccinia triticina was “AA (≥85% control of wheat leaf rust)”. In addition, the “Barley Powdery Mildew Control at a compound concentration of 10 ppm or lower” value in assay [3] was “AA (≥85% control of barley powdery mildew)”. Further, the “Wheat Fusarium Head Blight Control at a compound concentration of 25 ppm or lower” value with Fusarium graminearum is “C (from 25 to 49% control of wheat fusarium head blight)”. Besides, the “Septoria Leaf Blotch Control at a compound concentration of 25 ppm or lower” value in [4] is listed as “B (from 50 to 69% control of wheat septoria leaf blotch)”. Further, the “Cucumber Powdery Mildew Control at a compound concentration of 10 ppm or lower” value in the assay with Sphaerotheca fuliginea is “AA (≥85% control of cucumber powdery mildew)”.
Turning to `COc1ccc(F)cc1[C@H](Cn1c(=O)n(C(C)(C)C(=O)NC2CCC2)c(=O)c2c(C)c(-n3cccn3)sc21)OCCC#N` [Compound I-307, (R)-2-(1-(2-(2-cyanoethoxy)-2-(5-fluoro-2-methoxyphenyl)ethyl)-5-methyl-2,4-dioxo-6-(1H-pyrazol-1-yl)-1,4-dihydrothieno[2,3-d]pyrimidin-3 (2H)-yl)-N-cyclobutyl-2-methylpropanamide], the IC90 is greater than 50 mg/L with Septoria tritici (St); 2 mg/L (≈ 3.29 µM) in [1]; greater than 50 mg/L in assay [2]; no less than 0.4 mg/L in the assay with Botrtyis cinerea (Bc); 0.08 mg/L (≈ 0.131 µM) in the assay with Rhizoctonia solani (Rs); 2 mg/L (≈ 3.29 µM) in the assay on Diplodia maydis (Dm). Also, the IC90 turned out to be 0.08 mg/L (≈ 0.131 µM) in assay [5] and 0.4 mg/L (≈ 0.657 µM) in assay [6]. In addition, the “Asian Soybean Rust Control … of 25 ppm or lower” value with Phakopsora pachyrhizi is “C (from 25 to 49% control of Asian soybean rust)”. For the same compound, the “Wheat Leaf Rust Control … of 10 ppm or lower” value in the assay with Puccinia triticina is “AA (≥85% control of wheat leaf rust)”. Further, in [3], the “Barley Powdery Mildew Control at a compound concentration of 10 ppm or lower” value is “AA (≥85% control of barley powdery mildew)”. The “Wheat Fusarium Head Blight Control at a compound concentration of 25 ppm or lower” value with Fusarium graminearum is given as “C (from 25 to 49% control of wheat fusarium head blight)”. Also, the “Septoria Leaf Blotch Control at a compound concentration of 25 ppm or lower” value in assay [4] is listed as “B (from 50 to 69% control of wheat septoria leaf blotch)”. The “Cucumber Powdery Mildew Control at a compound concentration of 10 ppm or lower” value with Sphaerotheca fuliginea is “AA (≥85% control of cucumber powdery mildew)”.
On to `COc1ccc(F)cc1[C@H](Cn1c(=O)n([C@H](C)C(=O)NC2CCC2)c(=O)c2c(C)c(-n3cccn3)sc21)OCCC#N` [Compound I-308, (R)-2-(1-((R)-2-(2-cyanoethoxy)-2-(5-fluoro-2-methoxyphenyl)ethyl)-5-methyl-2,4-dioxo-6-(1H-pyrazol-1-yl)-1,4-dihydrothieno[2,3-d]pyrimidin-3 (2H)-yl)-N-cyclobutylpropanamide], for which the IC90 with Septoria tritici (St) is greater than 50 mg/L; in [1] it was 2 mg/L (≈ 3.36 µM); in assay [2], 50 mg/L (≈ 84.1 µM); with Botrtyis cinerea (Bc), 0.4 mg/L (≈ 0.673 µM); with Rhizoctonia solani (Rs) it was 0.08 mg/L (≈ 0.135 µM); in the assay on Diplodia maydis (Dm), 2 mg/L (≈ 3.36 µM). In addition, the IC90 in assay [5] came to 0.4 mg/L (≈ 0.673 µM); in assay [6], 2 mg/L (≈ 3.36 µM). Moreover, in the assay on Phakopsora pachyrhizi, the “Asian Soybean Rust Control … of 25 ppm or lower” value is “C (from 25 to 49% control of Asian soybean rust)”. Moreover, in the assay with Puccinia triticina, the “Wheat Leaf Rust Control … of 10 ppm or lower” value is listed as “AA (≥85% control of wheat leaf rust)”. For the same compound, the “Barley Powdery Mildew Control at a compound concentration of 10 ppm or lower” value in assay [3] is recorded as “AA (≥85% control of barley powdery mildew)”. The “Wheat Fusarium Head Blight Control at a compound concentration of 25 ppm or lower” value with Fusarium graminearum is “C (from 25 to 49% control of wheat fusarium head blight)”. In addition, the “Septoria Leaf Blotch Control at a compound concentration of 25 ppm or lower” value in assay [4] was “AA (≥85% control of wheat septoria leaf blotch)”. In addition, in the assay with Sphaerotheca fuliginea, the “Cucumber Powdery Mildew Control at a compound concentration of 10 ppm or lower” value is reported as “AA (≥85% control of cucumber powdery mildew)”.
For `COc1ccccc1[C@@H](O)Cn1c(=O)n(C(C)(C)C(=O)NC(C)C)c(=O)c2c(C)c(-n3nccn3)sc21` [Compound I-316, (R)-2-(1-(2-hydroxy-2-(2-methoxyphenyl)ethyl)-5-methyl-2,4-dioxo-6-(2H-1,2,3-triazol-2-yl)-1,4-dihydrothieno[2,3-d]pyrimidin-3 (2H)-yl)-N-isopropyl-2-methylpropanamide], the IC90 in the assay on Septoria tritici (St) is greater than 50 mg/L; in [1], 2 mg/L (≈ 3.8 µM); in assay [2] it was no less than 10 mg/L; in the assay on Botrtyis cinerea (Bc), 0.4 mg/L (≈ 0.76 µM); in the assay on Rhizoctonia solani (Rs) it was 0.08 mg/L (≈ 0.152 µM); with Diplodia maydis (Dm), 2 mg/L (≈ 3.8 µM). The IC90 in assay [5] and in [6] was 0.08 mg/L (≈ 0.152 µM) in each case. Further, the “Asian Soybean Rust Control … of 25 ppm or lower” value with Phakopsora pachyrhizi is “A (from 70% to 84% control of Asian soybean rust)”. The “Wheat Leaf Rust Control … of 10 ppm or lower” value in the assay with Puccinia triticina was “AA (≥85% control of wheat leaf rust)”. In addition, the “Barley Powdery Mildew Control at a compound concentration of 10 ppm or lower” value in assay [3] is “AA (≥85% control of barley powdery mildew)”. Moreover, in the assay with Fusarium graminearum, the “Wheat Fusarium Head Blight Control at a compound concentration of 25 ppm or lower” value was “C (from 25 to 49% control of wheat fusarium head blight)”. For the same compound, the “Septoria Leaf Blotch Control at a compound concentration of 25 ppm or lower” value in [4] is recorded as “A (from 70% to 84% control of wheat septoria leaf blotch)”. Also, the “Cucumber Powdery Mildew Control at a compound concentration of 10 ppm or lower” value in the assay with Sphaerotheca fuliginea is reported as “AA (≥85% control of cucumber powdery mildew)”.
Take `COc1ccc(F)cc1[C@H](Cn1c(=O)n(C(C)(C)C(=O)NC(C)C)c(=O)c2c(C)c(-n3nccn3)sc21)OC(C)=O` [Compound I-323, (R)-1-(5-fluoro-2-methoxyphenyl)-2-(3-(1-(isopropylamino)-2-methyl-1-oxopropan-2-yl)-5-methyl-2,4-dioxo-6-(2H-1,2,3-triazol-2-yl)-3,4-dihydrothieno[2,3-d]pyrimidin-1(2H)-yl)ethyl acetate]: the IC90 in the assay with Septoria tritici (St) is greater than 50 mg/L; in [1] it was 0.4 mg/L; in [2], greater than 50 mg/L; with Botrtyis cinerea (Bc), 0.4 mg/L; in the assay with Rhizoctonia solani (Rs), 0.08 mg/L; in the assay on Diplodia maydis (Dm), no less than 0.4 mg/L. Also, the IC90 in assay [5] and in assay [6] was 0.08 mg/L throughout. In the assay with Phakopsora pachyrhizi, the “Asian Soybean Rust Control … of 25 ppm or lower” value was “AA (≥85% control of Asian soybean rust)”. In the assay with Puccinia triticina, the “Wheat Leaf Rust Control … of 10 ppm or lower” value was “AA (≥85% control of wheat leaf rust)”. Besides, in assay [3], the “Barley Powdery Mildew Control at a compound concentration of 10 ppm or lower” value is reported as “AA (≥85% control of barley powdery mildew)”. The “Wheat Fusarium Head Blight Control at a compound concentration of 25 ppm or lower” value with Fusarium graminearum is recorded as “C (from 25 to 49% control of wheat fusarium head blight)”. In addition, the “Septoria Leaf Blotch Control at a compound concentration of 25 ppm or lower” value in assay [4] was “AA (≥85% control of wheat septoria leaf blotch)”. In addition, in the assay on Sphaerotheca fuliginea, the “Cucumber Powdery Mildew Control at a compound concentration of 10 ppm or lower” value is given as “AA (≥85% control of cucumber powdery mildew)”.
